The results in this text go back to patent US20240067679A1, “SARS-COV-2 PROTEIN-DERIVED PEPTIDE AND VACCINE CONTAINING SAME” (Onco Therapy Science, Inc., priority 2021, published 2024).

Where two headings read alike, the source gives them in different places.

The subject of test [1] is HLA-A*24:02-expressing target cells (TISI cells). In kind it is cell-based, human.
Test [2] concerns HLA-A*02:01-expressing target cells (T2 cells). Format: cell-based, human.
Test [3] deals with HLA-A*02:06-expressing target cells (HEV0011 cells). In kind it is cell-based, human.
The test system is the same in test [4]. In kind it is cell-based, human. The source holds these as a separate data set.
Test [5] deals with HLA-A*02:01-expressing target cells (T2 cells). In kind it is cell-based, human. This is another data set of the same source.
In test [6] the test system is CD8-positive T cells.
Test [7] has as its system HLA-A*24:02-expressing target cells (TISI cells). Format: cell-based, human. The source holds these as a separate data set.
Test [8] has as its target T1, SARS-CoV-2 ORF1ab peptide on HLA-A*02:01 (human).
T1 peptide: NVLAWLYAAV
Description: cytokine release.

Test [9] has as its target T2, SARS-CoV-2 ORF1ab peptide on HLA-A*02:01 (human).
T2 peptide: TLMIERFVSL
Description: cytokine release.

Where [10] appears, read: cells induced from HLA-A*24:02-positive PBMCs, peptide-pulsed TISI cells vs TISI cells not pulsed.
Where [11] appears, read: cells induced from HLA-A*02:01-positive PBMCs, peptide-pulsed T2 cells vs T2 cells not pulsed.
The mark [12] stands for this setting: HLA-A*02:06-restricted CTL lines, peptide-pulsed HEV0011 cells.
[13] abbreviates: cells induced from HLA-A*02:06-positive PBMCs, peptide-pulsed HEV0011 cells vs HEV0011 cells not pulsed.
[14] abbreviates: HLA-A*02:01-restricted CTL lines, peptide-pulsed T2 cells.

Turning to “FGMSRIGMEV (a peptide derived from N polyprotein of SARS-CoV-2) [Peptide 9, SARS-CoV-2 N protein-derived 10 mer peptide, position 315]”, the “Peptide-specific IFN-γ production (ELISPOT)” value in test [1] (setting [10]) is recorded as “no peptide-specific IFN-γ production was observed”; in test [2] (setting [11]), “observed”.
As for “FMIDVQQWGF (a peptide derived from ORF1ab polyprotein of SARS-CoV-2) [Peptide 15, SARS-CoV-2 ORF1ab-derived 10 mer peptide, position 6165]”, the “Peptide-specific IFN-γ production (ELISPOT)” value is “no peptide-specific IFN-γ production was observed” in test [1] (setting [10]), “observed” in test [2] (setting [11]) and “observed” in [4] (setting [13]). In addition, the “IFN-γ production by CTL lines (ELISA)” value in test [3] (setting [12]) and in test [5] (setting [14]) was “observed” each time.
Regarding FTYASALWEI [Peptide 7], the “Peptide-specific IFN-γ production (ELISPOT)” value was “no peptide-specific IFN-γ production was observed” in test [1], “observed” in test [2] and “observed” in [4]. Moreover, the “IFN-γ production by CTL lines (ELISA)” value in test [3] and in test [5] was “observed” throughout.
Regarding FVLWAHGFEL [Peptide 3], the “Peptide-specific IFN-γ production (ELISPOT)” value in [1], in test [2] and in test [4] was “observed” in each case. The “IFN-γ production by CTL lines (ELISA)” value in test [3], in test [5] and in [7] was “observed” throughout. Moreover, the “Detection of tetramer-positive CD8-positive T cells recognizing the peptide” value in test [6] is listed as “detected”.
On to LMYKGLPWNV [Peptide 2], for which the figures for the “Peptide-specific IFN-γ production (ELISPOT)” value in test [1], in test [2] and in [4] were “no peptide-specific IFN-γ production was observed”, “observed” and “not observed”, respectively. Besides, in test [5], the “IFN-γ production by CTL lines (ELISA)” value is recorded as “observed”.
Regarding “MMGFKMNYQV (a peptide derived from ORF1ab polyprotein of SARS-CoV-2) [Peptide 5, SARS-CoV-2 ORF1ab-derived 10 mer peptide, position 5982]”, the “Peptide-specific IFN-γ production (ELISPOT)” value in [1] (setting [10]) is recorded as “no peptide-specific IFN-γ production was observed”; in test [2] (setting [11]), “observed”.
Regarding “MMILSDDAV (a peptide derived from ORF1ab polyprotein of SARS-CoV-2) [Peptide 8, SARS-CoV-2 ORF1ab-derived 9 mer peptide, position 5147]”, in test [2] (setting [11]), the “Peptide-specific IFN-γ production (ELISPOT)” value is listed as “not observed”.
Turning to “NVLAWLYAAV (a peptide derived from ORF1ab polyprotein of SARS-CoV-2) [Peptide 12, SARS-CoV-2 ORF1ab-derived 10 mer peptide, position 3466]”, the “Peptide-specific IFN-γ production (ELISPOT)” value in test [1] (setting [10]) is “no peptide-specific IFN-γ production was observed”; in [2] (setting [11]), “observed”; in [4] (setting [13]) it was “observed”. Moreover, the “IFN-γ production by CTL lines (ELISA)” value in test [3] (setting [12]) and in test [5] (setting [14]) was “observed” throughout.
Take “SLFDMSKFPL (a peptide derived from ORF1ab polyprotein of SARS-CoV-2) [Peptide 1, SARS-CoV-2 ORF1ab-derived 10 mer peptide, position 7041]”: the figures for the “Peptide-specific IFN-γ production (ELISPOT)” value in test [1] (setting [10]) and in [2] (setting [11]) were “no peptide-specific IFN-γ production was observed” and “observed”, respectively.
On the same counts, the results for “TLEPEYENSV [Peptide 13, SARS-CoV-2 ORF1ab-derived 10 mer peptide, position 5740]” are “no peptide-specific IFN-γ production was observed” and “observed”.
Consider “TLMIERFVSL (a peptide derived from ORF1ab polyprotein of SARS-CoV-2) [Peptide 10, SARS-CoV-2 ORF1ab-derived 10 mer peptide, position 5245]”, for which the “Peptide-specific IFN-γ production (ELISPOT)” value in test [1] (setting [10]) is on record as “no peptide-specific IFN-γ production was observed”; in test [2] (setting [11]), “observed”; in test [4] (setting [13]), “observed”. The “IFN-γ production by CTL lines (ELISA)” value in test [3] (setting [12]) and in [5] (setting [14]) was “observed” in each case.
Regarding “YMPASWVMRI (a peptide derived from ORF1ab polyprotein of SARS-CoV-2) [Peptide 4, SARS-CoV-2 ORF1ab-derived 10 mer peptide, position 3654]”, the “Peptide-specific IFN-γ production (ELISPOT)” value in test [1] (setting [10]) is recorded as “no peptide-specific IFN-γ production was observed”; in test [2] (setting [11]), “observed”; in test [4] (setting [13]), “observed”. For the same molecule, the “IFN-γ production by CTL lines (ELISA)” value in [3] (setting [12]) and in test [5] (setting [14]) was “observed” in each case.
Take “YSFLPGVYSV (a peptide derived from ORF1ab polyprotein of SARS-CoV-2) [Peptide 14, SARS-CoV-2 ORF1ab-derived 10 mer peptide, position 3098]”: the “Peptide-specific IFN-γ production (ELISPOT)” value in [1] (setting [10]) is on record as “no peptide-specific IFN-γ production was observed”; in test [2] (setting [11]), “observed”.
For the molecule “YVYNPFMIDV (a peptide derived from ORF1ab polyprotein of SARS-CoV-2) [Peptide 11, SARS-CoV-2 ORF1ab-derived 10 mer peptide, position 6160]”, the “Peptide-specific IFN-γ production (ELISPOT)” value in test [1] (setting [10]), in test [2] (setting [11]) and in [4] (setting [13]) was “observed” each time. In addition, the “IFN-γ production by CTL lines (ELISA)” value in test [3] (setting [12]) is listed as “observed”; in test [5] (setting [14]), “observed”; in test [7] (HLA-A*24:02-restricted CTL lines, peptide-pulsed TISI cells) it was “observed”.

B1: Peptide 12-responsive TCR-1 (TCR)
alpha TRAV1-2 TRAJ20 CDR3: CAVRDPRNDYKLSF
beta TRBV27 TRBJ1-1 CDR3: CATQVNTEAFF
With B1, the binding result in test [8] was “recognises”.

B2: Peptide 10-responsive TCR (TCR)
alpha TRAV8-6 TRAJ36 CDR3: CAITGANNLFF
beta TRBV20-1 TRBJ1-5 CDR3: CSAEDRGSNSNQPQHF
As for B2, the binding result in test [9] is reported as “recognises”.

B3: Peptide 12-responsive TCR-2 (TCR)
alpha TRAV24 TRAJ29 CDR3: CAFLSGNTPLVF
beta TRBV27 TRBJ1-6 CDR3: CASSPAAYSPLHF
Take B3: the binding result in test [8] is listed as “recognises”.
